Measured values: paper PMC12564498, “Benzo[d]imidazole–Naphthalen-Arylmethanone Regioisomers as CB1 Ligands: Evaluation of Agonism via an Indirect Cytotoxicity-Based Approach” (International Journal of Molecular Sciences, 2025)
Where “and” joins values, the source holds several entries; their conditions need not be identical. Equal entries are not always repeated.

Molecular target: T1, human cannabinoid CB1 receptor (Homo sapiens, UniProt P21554)
T1 construct: purchased Perkin Elmer Inc., Singapore Pte; Ltd. RBHCB1M400UA; host or cells: HEK293-EBNA cell membranes (overexpressing)
Experiment: biochemical
Assay type: binding
Settings: Cheng–Prusoff from IC50, [3H]CP-55940 0.5 nM, mean ± SEM n = 3; read-out: CB1 Ki

T1 sequence (P21554 whole entry): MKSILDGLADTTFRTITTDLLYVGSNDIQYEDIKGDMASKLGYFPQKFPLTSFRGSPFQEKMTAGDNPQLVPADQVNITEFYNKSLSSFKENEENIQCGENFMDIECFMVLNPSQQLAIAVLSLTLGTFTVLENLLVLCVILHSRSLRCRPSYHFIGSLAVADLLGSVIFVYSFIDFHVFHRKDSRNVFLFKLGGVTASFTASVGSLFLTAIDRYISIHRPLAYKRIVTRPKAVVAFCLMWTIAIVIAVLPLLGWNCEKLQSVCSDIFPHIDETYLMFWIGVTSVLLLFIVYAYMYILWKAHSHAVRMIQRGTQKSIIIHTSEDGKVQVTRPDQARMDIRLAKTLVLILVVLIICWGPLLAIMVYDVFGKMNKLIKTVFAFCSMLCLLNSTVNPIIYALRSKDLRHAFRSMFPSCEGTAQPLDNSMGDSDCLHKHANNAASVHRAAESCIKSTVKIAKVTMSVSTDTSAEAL

SMILES | Ki
O=C(c1cccc2ccccc12)n1c(-c2ccco2)nc2ccc(Cl)cc21 [Compound 4f′] | > 10 µM
O=C(c1cccc2ccccc12)n1c(-c2cccnc2)nc2cc(F)ccc21 [Compound 5a] | > 10 µM
Cc1cc(-c2nc3cc(F)ccc3n2C(=O)c2cccc3ccccc23)no1 [Compound 5c, (5-fluoro-2-(5-methylisoxazol-3-yl)-1H-benzo[d]imidazol-1-yl)(naphthalen-1-yl)methanone] | > 10 µM
O=C(c1cccc2ccccc12)n1c(-c2ccon2)nc2cc(F)ccc21 [Compound 5d, (5-fluoro-2-(isoxazol-3-yl)-1H-benzo[d]imidazol-1-yl)(naphthalen-1-yl)methanone] | > 10 µM
O=C(c1cccc2ccccc12)n1c(-c2ccco2)nc2cc(F)ccc21 [Compound 5f, (5-fluoro-2-(furan-2-yl)-1H-benzo[d]imidazol-1-yl)(naphthalen-1-yl)methanone] | ~1.48 µM and 1.48 µM
O=C(c1cccc2ccccc12)n1c(-c2ccco2)nc2ccc(F)cc21 [Compound 5f′, (6-fluoro-2-(furan-2-yl)-1H-benzo[d]imidazol-1-yl)(naphthalen-1-yl)methanone] | ~2.12 µM and 2.12 µM

Same assay, conditions: [3H]CP-55940 0.5 nM, hCB1 HEK293-EBNA membranes, mean ± SEM n = 3; read-out: CB1 IC50

SMILES | IC50 [µM]
O=C(c1cccc2ccccc12)n1c(-c2ccco2)nc2ccc(Cl)cc21 [Compound 4f′] | > 10
O=C(c1cccc2ccccc12)n1c(-c2cccnc2)nc2cc(F)ccc21 [Compound 5a] | > 10
Cc1cc(-c2nc3cc(F)ccc3n2C(=O)c2cccc3ccccc23)no1 [Compound 5c, (5-fluoro-2-(5-methylisoxazol-3-yl)-1H-benzo[d]imidazol-1-yl)(naphthalen-1-yl)methanone] | > 10
O=C(c1cccc2ccccc12)n1c(-c2ccon2)nc2cc(F)ccc21 [Compound 5d, (5-fluoro-2-(isoxazol-3-yl)-1H-benzo[d]imidazol-1-yl)(naphthalen-1-yl)methanone] | > 10
O=C(c1cccc2ccccc12)n1c(-c2ccco2)nc2cc(F)ccc21 [Compound 5f, (5-fluoro-2-(furan-2-yl)-1H-benzo[d]imidazol-1-yl)(naphthalen-1-yl)methanone] | 6.03 ± 4.09
O=C(c1cccc2ccccc12)n1c(-c2ccco2)nc2ccc(F)cc21 [Compound 5f′, (6-fluoro-2-(furan-2-yl)-1H-benzo[d]imidazol-1-yl)(naphthalen-1-yl)methanone] | 8.65 ± 3.11

Same assay, conditions: displacement of [3H]CP-55940 at 10 μM compound; read-out: CB1 Max Tested µM (% Displacement)

SMILES | inhibition at 10 µM [%]
O=C(c1cccc2ccccc12)n1c(-c2ccco2)nc2ccc(Cl)cc21 [Compound 4f′] | 47.5
O=C(c1cccc2ccccc12)n1c(-c2cccnc2)nc2cc(F)ccc21 [Compound 5a] | 41
Cc1cc(-c2nc3cc(F)ccc3n2C(=O)c2cccc3ccccc23)no1 [Compound 5c, (5-fluoro-2-(5-methylisoxazol-3-yl)-1H-benzo[d]imidazol-1-yl)(naphthalen-1-yl)methanone] | 54.5
O=C(c1cccc2ccccc12)n1c(-c2ccon2)nc2cc(F)ccc21 [Compound 5d, (5-fluoro-2-(isoxazol-3-yl)-1H-benzo[d]imidazol-1-yl)(naphthalen-1-yl)methanone] | 54
O=C(c1cccc2ccccc12)n1c(-c2ccco2)nc2cc(F)ccc21 [Compound 5f, (5-fluoro-2-(furan-2-yl)-1H-benzo[d]imidazol-1-yl)(naphthalen-1-yl)methanone] | > 55
O=C(c1cccc2ccccc12)n1c(-c2ccco2)nc2ccc(F)cc21 [Compound 5f′, (6-fluoro-2-(furan-2-yl)-1H-benzo[d]imidazol-1-yl)(naphthalen-1-yl)methanone] | > 55

Molecular target: T2, human recombinant cannabinoid CB2 receptor (Homo sapiens, UniProt P34972)
T2 construct: purchased Perkin Elmer Inc., Singapore Pte; Ltd. RBXCB2M400UA; host or cells: HEK293-EBNA cell membranes (overexpressing)
Experiment: CB2 radioligand displacement binding assay ([3H]CP-55940)
Settings: Cheng–Prusoff from IC50, [3H]CP-55940 0.5 nM, mean ± SEM n = 3

T2 sequence (P34972 whole entry): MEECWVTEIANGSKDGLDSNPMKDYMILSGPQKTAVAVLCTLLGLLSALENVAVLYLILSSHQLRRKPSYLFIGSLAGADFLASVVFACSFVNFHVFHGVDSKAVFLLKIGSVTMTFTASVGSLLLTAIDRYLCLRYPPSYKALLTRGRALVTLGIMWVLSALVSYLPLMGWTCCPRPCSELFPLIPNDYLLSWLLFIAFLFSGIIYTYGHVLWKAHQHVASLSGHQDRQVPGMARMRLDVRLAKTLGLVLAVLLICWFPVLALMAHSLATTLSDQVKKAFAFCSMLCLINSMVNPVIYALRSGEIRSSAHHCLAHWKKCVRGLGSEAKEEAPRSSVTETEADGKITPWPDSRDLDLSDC

SMILES | Ki [µM]
O=C(c1cccc2ccccc12)n1c(-c2ccco2)nc2ccc(Cl)cc21 [Compound 4f′] | > 10
O=C(c1cccc2ccccc12)n1c(-c2cccnc2)nc2cc(F)ccc21 [Compound 5a] | > 10
Cc1cc(-c2nc3cc(F)ccc3n2C(=O)c2cccc3ccccc23)no1 [Compound 5c, (5-fluoro-2-(5-methylisoxazol-3-yl)-1H-benzo[d]imidazol-1-yl)(naphthalen-1-yl)methanone] | > 10
O=C(c1cccc2ccccc12)n1c(-c2ccon2)nc2cc(F)ccc21 [Compound 5d, (5-fluoro-2-(isoxazol-3-yl)-1H-benzo[d]imidazol-1-yl)(naphthalen-1-yl)methanone] | > 10
O=C(c1cccc2ccccc12)n1c(-c2ccco2)nc2cc(F)ccc21 [Compound 5f, (5-fluoro-2-(furan-2-yl)-1H-benzo[d]imidazol-1-yl)(naphthalen-1-yl)methanone] | > 10
O=C(c1cccc2ccccc12)n1c(-c2ccco2)nc2ccc(F)cc21 [Compound 5f′, (6-fluoro-2-(furan-2-yl)-1H-benzo[d]imidazol-1-yl)(naphthalen-1-yl)methanone] | > 10

Same assay, conditions: [3H]CP-55940 0.5 nM, hCB2 HEK293-EBNA membranes, mean ± SEM n = 3

SMILES | IC50 [µM]
O=C(c1cccc2ccccc12)n1c(-c2ccco2)nc2ccc(Cl)cc21 [Compound 4f′] | > 10
O=C(c1cccc2ccccc12)n1c(-c2cccnc2)nc2cc(F)ccc21 [Compound 5a] | > 10
Cc1cc(-c2nc3cc(F)ccc3n2C(=O)c2cccc3ccccc23)no1 [Compound 5c, (5-fluoro-2-(5-methylisoxazol-3-yl)-1H-benzo[d]imidazol-1-yl)(naphthalen-1-yl)methanone] | > 10
O=C(c1cccc2ccccc12)n1c(-c2ccon2)nc2cc(F)ccc21 [Compound 5d, (5-fluoro-2-(isoxazol-3-yl)-1H-benzo[d]imidazol-1-yl)(naphthalen-1-yl)methanone] | > 10
O=C(c1cccc2ccccc12)n1c(-c2ccco2)nc2cc(F)ccc21 [Compound 5f, (5-fluoro-2-(furan-2-yl)-1H-benzo[d]imidazol-1-yl)(naphthalen-1-yl)methanone] | > 10
O=C(c1cccc2ccccc12)n1c(-c2ccco2)nc2ccc(F)cc21 [Compound 5f′, (6-fluoro-2-(furan-2-yl)-1H-benzo[d]imidazol-1-yl)(naphthalen-1-yl)methanone] | > 10

Same assay, conditions: displacement of [3H]CP-55940 at 10 μM compound; read-out: CB2 Max Tested µM (% Displacement)

SMILES | inhibition at 10 µM [%]
O=C(c1cccc2ccccc12)n1c(-c2ccco2)nc2ccc(Cl)cc21 [Compound 4f′] | 53.2
O=C(c1cccc2ccccc12)n1c(-c2cccnc2)nc2cc(F)ccc21 [Compound 5a] | 43
Cc1cc(-c2nc3cc(F)ccc3n2C(=O)c2cccc3ccccc23)no1 [Compound 5c, (5-fluoro-2-(5-methylisoxazol-3-yl)-1H-benzo[d]imidazol-1-yl)(naphthalen-1-yl)methanone] | 24
O=C(c1cccc2ccccc12)n1c(-c2ccon2)nc2cc(F)ccc21 [Compound 5d, (5-fluoro-2-(isoxazol-3-yl)-1H-benzo[d]imidazol-1-yl)(naphthalen-1-yl)methanone] | 51
O=C(c1cccc2ccccc12)n1c(-c2ccco2)nc2cc(F)ccc21 [Compound 5f, (5-fluoro-2-(furan-2-yl)-1H-benzo[d]imidazol-1-yl)(naphthalen-1-yl)methanone] | 54.5
O=C(c1cccc2ccccc12)n1c(-c2ccco2)nc2ccc(F)cc21 [Compound 5f′, (6-fluoro-2-(furan-2-yl)-1H-benzo[d]imidazol-1-yl)(naphthalen-1-yl)methanone] | 47

Test system: HEK293 cells
Experiment: cells
Settings: 0.1 μM, 72 h, MTT, n = 3
Method: (§1) HEK293, U87MG, and HL-60 cell lines were seeded in a flat-bottom 96-well plate at a density of 10,000 cells per well. […] All compounds were incubated at 0.1 μM in 200 μL of culture medium supplemented with 10% FBS, in a flat-bottom 96-well plate at a density of 10,000 cells per well, at 37 °C for 72 h. Next, 20 μL of a 5 mg/mL MTT solution was added, and the cells were incubated at 37 °C for 4 h. Then, they were solubilized with 10% sodium dodecyl sulfate (SDS) in 0.1 mM HCl and incubated overnight at 37 °C. Formazan absorbance of each well was measured using the EPOCH microplate reader (Biotek, Winooski, VT, USA) at a wavelength of 570 nm. […]
(§2) promyelocytic leukemia cells (HL-60) were maintained at 5% CO2 and 37 °C in DMEM, EMEM and RPMI medium, respectively containing 10% Fetal Bovine Serum and 100 U/mL penicillin and 100 […]
(§3) Cell viability: ([MTT - (3-(4,5-dimethylthiazol-2-yl)-2,5-diphenyltetrazolium bromide) - formazan] HEK293, U87MG, and HL-60 cells were first quantified to determine the exact number to be used in […]
(§4) with the Beer-Lambert(1).
(§5) HEK293, U87MG and HL-60 cell lines were seed in a flat-bottom 96-wells plate at a density of 10,000 […]
(§6) concentrations (0.001 μM to 10 μM) in 200 μL of respective culture medium supplemented with 10% fetal bovine serum (FBS), at 37 °C for 72 hours. Subsequently, 20 μL of 5 mg/mL MTT solution was added to each well, and cells were incubated at 37 °C for 4 h. The resulting formazan crystals were then solubilized with 10% sodium dodecyl sulfate (SDS) in 0.1 mM HCl, followed by overnight incubation at 37 °C. Untreated cells were used as the control, 0.1% of dimethyl sulfoxide (DMSO) as the vehicle control, and 0.2 % of Triton X-100 as a positive control for cell death. IC 50 toxicity values […]
(§7) same conditions described in the previous paragraph. […]
(§8) determined IC50. The stimulation with both CB ligands was performed simultaneously.
(§9) All compounds were incubated at 0.1 μM in 200 μL of culture medium supplemented with 10% FBS, in a flat-bottom 96-well plate at a density of 10,000 cells per well, at 37°C for 72 hours. Next, 20 μL of a 5 mg/mL MTT solution was added, and the cells were incubated at 37°C for 4 hours. Then, they were solubilized with 10% sodium dodecyl sulfate (SDS) in 0.1 mM HCl and incubated overnight at 37°C. Formazan absorbance of each well was measured using the EPOCH microplate reader (Biotek, USA) at a wavelength of 570 nm.
(§10) [1]Mosorov, V., The Lambert-Beer law in time domain form and its application.

SMILES | % Toxicity HEK293T [%]
O=C(c1cccc2ccccc12)n1c(-c2ccco2)nc2ccc(Cl)cc21 [Compound 4f′] | 50 ± 23

Same assay, conditions: Homo sapiens, HEK293, 72 h, read-out: % Toxicity HEK293T, 0.1 μM, 72 h, MTT, n = 3

SMILES | cytotoxicity at 0.1 µM [%]
O=C(c1cccc2ccccc12)n1c(-c2ccco2)nc2ccc(Cl)cc21 [Compound 4f′] | 50

Test system: HL-60 cells
Experiment: cells
Settings: 0.1 μM, 72 h, MTT, n = 3
Method: as §1, §2, §3, §4, §5, §6, §7, §8, §9, §10

SMILES | % Toxicity HL-60
O=C(c1cccc2ccccc12)n1c(-c2ccco2)nc2ccc(Cl)cc21 [Compound 4f′] | 10 ± 19%
O=C(c1cccc2ccccc12)n1c(-c2ccco2)nc2ccc(F)cc21 [Compound 5f′, (6-fluoro-2-(furan-2-yl)-1H-benzo[d]imidazol-1-yl)(naphthalen-1-yl)methanone] | does not show any toxicity

Same assay, conditions: Homo sapiens, HL-60, 72 h, read-out: % Toxicity HL-60

SMILES | cytotoxicity at 0.1 µM [%]
O=C(c1cccc2ccccc12)n1c(-c2ccco2)nc2ccc(Cl)cc21 [Compound 4f′] | 10

Test system: U87MG cells
Experiment: cells
Settings: Homo sapiens, U-87 MG, 72 h, read-out: % Toxicity U87MG, 0.1 μM, 72 h, MTT, n = 3
Method: as §1, §2, §3, §4, §5, §6, §7, §8, §9, §10

SMILES | cytotoxicity at 0.1 µM [%]
O=C(c1cccc2ccccc12)n1c(-c2ccco2)nc2ccc(F)cc21 [Compound 5f′, (6-fluoro-2-(furan-2-yl)-1H-benzo[d]imidazol-1-yl)(naphthalen-1-yl)methanone] | 66

Same assay, conditions: Homo sapiens, U-87 MG, 72 h, read-out: IC50 toxicity U87MG, MTT, 72 h

SMILES | IC50 [µM]
O=C(c1cccc2ccccc12)n1c(-c2ccco2)nc2ccc(F)cc21 [Compound 5f′, (6-fluoro-2-(furan-2-yl)-1H-benzo[d]imidazol-1-yl)(naphthalen-1-yl)methanone] | 0.089

Same assay, conditions: MTT dose–response curve, unit not given

SMILES | IC50 U87MG cells as printed in the figure picture
O=C(c1cccc2ccccc12)n1c(-c2ccco2)nc2cc(F)ccc21 [Compound 5f, (5-fluoro-2-(furan-2-yl)-1H-benzo[d]imidazol-1-yl)(naphthalen-1-yl)methanone] | 8.963 x 10^-8
